Columns and labels:
[1] = Plasma level of compound 2 measured at 30 min in sprague-dawley rat after 2 mg/kg intravenous administration of compound; assay type: ADME, organism-based; set-up: dose 2 mg/kg, route intravenous; conditions: in vivo, 0.5 h, read-out: Plasma level
[2] = Plasma level measured at 30 min in sprague-dawley rat upon intravenous administration [dosed in PEG-400 solution]; assay type: ADME, organism-based; conditions: read-out: Plasma level
[3] = Plasma level measured at 30 min in sprague-dawley rat upon intravenous administration; assay type: ADME; conditions: read-out: Plasma level
[4] = molecular target: Prostaglandin G/H synthase 1 (Homo sapiens, UniProt P23219); assay: Inhibitory concentration against prostaglandin G/H synthase 1 of human whole blood
Prostaglandin G/H synthase 1, sequence (P23219 whole entry): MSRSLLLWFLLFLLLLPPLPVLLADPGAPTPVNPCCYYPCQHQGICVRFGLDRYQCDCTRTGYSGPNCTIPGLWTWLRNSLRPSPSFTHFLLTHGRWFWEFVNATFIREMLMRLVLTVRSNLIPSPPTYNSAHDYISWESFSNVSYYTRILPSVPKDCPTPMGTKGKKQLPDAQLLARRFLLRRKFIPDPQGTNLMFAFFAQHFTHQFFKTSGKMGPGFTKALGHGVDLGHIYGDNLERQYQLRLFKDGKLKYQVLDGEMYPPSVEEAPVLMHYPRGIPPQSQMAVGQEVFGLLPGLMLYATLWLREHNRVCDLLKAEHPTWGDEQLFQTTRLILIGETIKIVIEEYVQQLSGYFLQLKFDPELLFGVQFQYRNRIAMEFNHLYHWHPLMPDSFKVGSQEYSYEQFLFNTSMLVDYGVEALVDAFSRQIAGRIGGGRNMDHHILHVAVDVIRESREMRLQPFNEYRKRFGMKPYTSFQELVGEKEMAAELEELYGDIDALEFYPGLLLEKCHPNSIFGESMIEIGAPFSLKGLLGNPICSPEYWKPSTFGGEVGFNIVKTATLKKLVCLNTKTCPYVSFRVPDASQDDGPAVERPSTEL

| SMILES | concentration [1] [nM] | also measured |
| --- | --- | --- |
| CC[C@]1(C)OC2(OCC(CO)O2)C(OC(C)C)=C1c1ccc(S(C)(=O)=O)cc1 (stereo partly specified) | 2800 | concentration at 0.5 h [2]: 1400 nM |
| CC[C@]1(C)O/C(=N\[C@@H](CO)C(=O)O)C(OC(C)C)=C1c1ccc(S(C)(=O)=O)cc1 | < 100 |  |
| CC[C@]1(C)O/C(=N\OCC(=O)O)C(OC(C)C)=C1c1ccc(S(C)(=O)=O)cc1 | < 100 |  |
| CC1(O)OC(=O)C(c2ccc(Cl)cc2)=C1c1ccc(S(C)(=O)=O)cc1 (stereo unspecified) |  | IC50 [4]: > 86 µM |
| CC[C@]1(C)OC(=O)C(OC(C)C)=C1c1ccc(S(C)(=O)=O)cc1 |  | IC50 [4]: > 86 µM |

More lines, main results first:

| concentration [1] [nM] | SMILES | also measured |
| --- | --- | --- |
| 200 | CC[C@]1(C)OC2(OCC(COP(=O)([O-])OCC[N+](C)(C)C)O2)C(OC(C)C)=C1c1ccc(S(C)(=O)=O)cc1 (stereo partly specified) | concentration at 0.5 h [3]: 200 nM |
| 100 | CC[C@]1(C)OC2(OCC(C3OC(=O)C(O)=C3O)O2)C(OC(C)C)=C1c1ccc(S(C)(=O)=O)cc1 (stereo partly specified) |  |
| 400 | CC[C@]1(C)OC2(OCC(COC(=O)CCC(=O)[O-])O2)C(OC(C)C)=C1c1ccc(S(C)(=O)=O)cc1.[Na+] (stereo partly specified) | concentration at 0.5 h [3]: < 100 nM |
